Data taken from publication PMC5847527, “Identification of a novel 2-oxindole fluorinated derivative as in vivo antitumor agent for prostate cancer acting via AMPK activation” (Scientific Reports, 2018).

Legend:
AMPK = AMPK and ACC phosphorylation by Western blot in DU145 cells; assay type: cell-based, human; conditions: 25 µM, 1 hour
Experimental: Figure 2 Effect of 2-oxindole fluorinated derivatives on AMPK activity in prostate cancer cells. (A) PC-3, DU145 and LNCaP cells were treated with 25 µM of the selected 2-oxindole fluorinated derivatives for 1 hour. Levels of the phosphorylated AMPK (pAMPK), phosphorylated ACC (pACC) and their total forms were determined by Western blot. Upper panel, a representative Western blot of three different experiments. β-tubulin (β-Tub) serves as a loading control. […] Lower panels, densitometric analyses of bands represented as the mean of the ratio pAMPK/AMPK or pACC/ACC ± SD of three different experiments. *p < 0.05 compared with the controls by one-way ANOVA followed by Fisher’s LSD test; ^#p < 0.05 compared with 2-oxindole fluorinated derivates or with the AMPK activators AMP or A769662 by one-way ANOVA followed by Tukey test.
Similar results were obtained although AMPK stimulation by compound 8c was not so strong (Fig. 2A). […]
(§1) Cells were lysed in Lysis buffer (50 mM Tris pH 7.4, 0.8 M NaCl, 5 mM MgCl2, 0.1% Triton X-100) containing Protease Inhibitor and Phosphatase inhibitor Cocktails (Roche, Basel, Switzerland). Protein concentrations were measured by BioRad™ protein assay kit (Richmond, CA, USA). […] Films were analyzed by densitometry. […]

p53 = p53 and p-p53 level by Western blot in LNCaP cells; assay type: cell-based, human
Experimental: Figure 4 Cell Cycle analysis in 8c-treated prostate cancer cells. (A) PC-3 and LNCaP cells were treated with compound 8c for 24 hours and cell cycle analysis was analyzed by flow cytometry using Propidium Iodide (PI). Percentage of cells in subG0, G1, S, and G2/M phases is indicated in the histogram. (B) Levels of Cyclin D1, p-p53, p53, p21 and cleaved Caspase 3 (17 kDa fragment) were determined by Western blot. Upper panel, representative Western blot of two different experiments. β-tubulin (β-Tub) serves as a loading control. […]
Cyclin D1 activity is modulated by several inhibitors such as p21 which negatively regulate cell cycle progression by interacting with cyclin dependent kinases (cdks). […] To further study the role of compound 8c in cell cycle, we determined the expression of p21, p53 and the levels of cleaved caspase 3 in the prostate cells. P53 was only determined in LNCaP cells since PC-3 cells are p53-negative[40].
as §1

AMPKα1 1–550 fragment = test: Activity on isolated AMPKα1 1–550 fragment; assay type: biochemical, human; conditions: fragment containing the catalytic domain
Excerpt: We also assayed the effect of compound 8c on a fragment of the α1 isoform (aa 1–550) that contains the catalytic domain.
(B) Activity of compound 8c on isolated AMPKα1 1–550 fragment. […] Data are the mean ± S.D. of four experiments. **p < 0.01 and ***p < 0.001 compared by the Student’s t-test.

[1] = test system: PC-3, DU145 and LNCaP cells; test: Cell viability by cell counting (Trypan blue); assay type: cell-based; conditions: 25 µM
Experimental: (§2) Figure 3 Comparison of the effect of 2-oxindole fluorinated derivatives on the proliferation of human prostate cancer cells. (A) Normal (PTN2 and RWPE-1) and cancer (PC3,DU145 and LNCaP) prostate cells were treated with different doses of the compounds for 24 hours and cell viability was monitored by MTT assay. […] (C) PC-3, DU145 and LNCaP cells were treated with 25 µM of compound 8c for different times. Values were normalized with the control and represent the mean ± SD of at least three independent experiments. *p < 0.05 and **p < 0.01 compared to control by the Student’s - test.
To confirm the antiproliferative effect of compound 8c, cell viability was evaluated by cell counting at different times in PC-3, DU145 and LNCaP cells.
Cell viability was determined by 3-(4,5-dimethylthiazol-2-yl)-2,5-diphenyltetrazolium bromide (MTT) (Sigma-Aldrich) method. […] The optical density in each well was evaluated by measurement of absorbance at 490 and 650 nm using a microplate reader (ELX 800 Bio-Tek Intruments, INC). IC50 values were calculated using GraphPad Prism vs 6.0 (GraphPad Software, Inc, La Jolla, CA, USA). Cell viability was also determined by counting viable and dead cells by Trypan blue staining. Trypan blue positive and negative cells were counted using a Countess^TM automated cell counter (Invitrogen, Carlsbad, CA, USA). […]

DU145 cells = test: Cell viability by MTT assay, DU145; assay type: cell-based, human
Experimental: as §2
Human prostate cancer epithelial PC-3, DU145 and LNCaP and human prostate normal RWPE-1 cells were purchased from American Type Culture Collection (ATCC CRL-1435 CRL-1740 and CRL 11609 respectively) (Rockville, MD, USA). The human prostate normal PNT2 cell line was purchased to ECACC (European Collection of Cell cultures, Salisbury, SP4 0JG, UK). Cells were routinely grown in RPMI 1640 medium supplemented with 100 IU/ml penicillin G sodium, 100 µg/ml streptomycin sulfate, 0.25 µg/ml amphotericin B (Invitrogen, Paisley, UK) and 10% fetal calf serum. Cells were used at passages between 10–20. For treatment experiments, cells were plated and grown over night, the medium was then replaced with serum-free RPMI 1640 for 24 hours and then incubated with different doses of the compounds for the indicated times.
Cell viability was determined by 3-(4,5-dimethylthiazol-2-yl)-2,5-diphenyltetrazolium bromide (MTT) (Sigma-Aldrich) method. In brief, a total of 5000 cells/well were seeded into 12-well plate in a final volume of 1 mL. After treatments, 20 µl MTT solution (5 mg/ml in PBS) was added to the medium and cells were incubated at 37 °C for 4 h. Then, the supernatant was discarded and isopropanol was added to dissolve the formazan crystals. Treatments were carried out in triplicate. The optical density in each well was evaluated by measurement of absorbance at 490 and 650 nm using a microplate reader (ELX 800 Bio-Tek Intruments, INC). IC50 values were calculated using GraphPad Prism vs 6.0 (GraphPad Software, Inc, La Jolla, CA, USA). Cell viability was also determined by counting viable and dead cells by Trypan blue staining. Trypan blue positive and negative cells were counted using a Countess^TM automated cell counter (Invitrogen, Carlsbad, CA, USA). Results were expressed in relation to total number of cells counted.

O=C1Nc2ccccc2C1(F)Cc1ccc(-c2ccccc2)o1 (stereo not drawn) [Compound 8c, 3-fluoro-3-((5-phenylfuran-2-yl)methyl)indolin-2-one]
AMPK phosphorylation (pAMPK/AMPK) (AMPK): stimulate AMPK in DU145 cells | total and phosphorylated p53 (p53): increase in the total and phosphorylated forms of p53 | AMPK activity of α1 isoform fragment (aa 1–550) (AMPKα1 1–550 fragment): no change in AMPK activity | cytotoxic effect by cell counting at different times [1]: time-dependent strong cytotoxic effect | inhibitory efficacy on cells viability at 50 μM (DU145 cells; DU145, 50 μM): 88% | IC50 (DU145 cells; Homo sapiens, DU-145, DU145, MTT, 24 hours): 19 µM
